Experimental data taken from US6469028B1, “Synthesis and use of retinoid compounds having negative hormone and/or anatgonist activities” (Allergan, Inc., priority 1995, dated 2002).

How the values were obtained:
[1] = tested on: 1,25-dihydroxyvitamin D3-dependent gene expression; assay: Example 14: 1,25-dihydroxyvitamin D3 transactivation, MTV-VDRE-Luc in HeLa cells; type: cell-based; conditions: 1,25-dihydroxyvitamin D3 alone
Procedure: Hela cells were transfected using the cationic liposome-mediated transfection procedure described by Feigner et al. in Proc. Natl. Acad. Sci. USA 84:7413 (1987). 5×10^4 cells were plated in 12-well multiwell plates and grown in DMEM supplemented with 10% FBS. Cells were cotransfected in serum-free medium using 2 μg/well of LIPOFECTAMINE reagent (Life Technologies, Inc.) with 0.7 μg of the reporter plasmid MTV-VDRE-Luc, containing two copies of the 1,25-dihydroxyvitamin D3 response element [NT] ID NO:4) from the mouse osteopontin gene (Ferrara et al. J. Biol. Chem. 269:2971 (1994)) ligated into the reporter plasmid ΔMTV-Luc (Heyman et al. in Cell 68:397 (1992)), and 0.3 μg of the plasmid pGEM3Z (Pharmacia, Inc.) as carrier DNA to bring the final concentration of DNA to 1.0 μg per well. After six hours of transfection, cells were fed with growth medium containing charcoal extracted FBS at a final concentration of 10%. […] Luciferase activity was measured as described above. This experimental system allowed a convenient method of monitoring and quantitating 1,25-dihydroxyvitamin D3-dependent gene expression.

[2] = tested on: TPA-induced AP-1 activity; assay: Example 15: anti-AP-1 activity, Str-AP1-CAT in HeLa cells; type: cell-based; conditions: 1,25-dihydroxyvitamin D3 alone, 10^−12 to 10^−7 M
Procedure: HeLa cells were transfected with 1 μg of Str-AP1-CAT using LIPOFECTAMINE according to the method described by Nagpal et al. in J. Biol. Chem. 270:923 (1995). Transfected cells were treated with AGN 193109 alone (10^−9 to 10^−7 M), 1,25-dihydroxyvitamin D3 alone (10^−12 to 10^−7 M) or 1,25-dihydroxyvitamin D3 (10^−12 to 10^−7 M) in the presence of 10^−8 M AGN 193109.

[3] = Example 4: retinoid-induced hypertriglyceridemia (serum triglycerides); type: in vivo, rats; conditions: group C: AGN 191659 3.7 mg/kg oral alone
Procedure: Male Fischer rats (6-7 weeks old, n=5) were treated by intragastric intubation with corn oil (vehicle), AGN 191659, AGN 193109 or a combination of AGN 191659 and AGN 193109. AGN 191659 and AGN 193109 were given as fine suspensions in corn oil.
Serum was separated from blood by low speed centrifugation. Total serum triglycerides (triglycerides plus glycerol) were measured with a standard spectrophotometric endpoint assay available commercially as a kit and adapted to a 96-well plate format. Serum triglyceride levels are expressed as the mean±SD. Means were compared statistically by one-way analysis of variance followed by Dunnett's test if significant differences were found. Differences were considered significant at P<0.05.

RAR-γ-VP-16 = assay: Example 12: assay for retinoid negative hormones, CV-1 cells; type: cell-based; conditions: 10^−9 to 10^−6 M, 18 hours, no agonist
RARγ = molecular target: T1, RARγ (Homo sapiens, UniProt P13631); assay: [3H]-ATRA displacement assay, baculovirus expressed receptor; type: binding; design: made in house; host or cells: baculovirus expression system; conditions: Table 12; relative affinity, competition of 3H-ATRA binding, Cheng-Prussof equation
T1 sequence (P13631 1-454): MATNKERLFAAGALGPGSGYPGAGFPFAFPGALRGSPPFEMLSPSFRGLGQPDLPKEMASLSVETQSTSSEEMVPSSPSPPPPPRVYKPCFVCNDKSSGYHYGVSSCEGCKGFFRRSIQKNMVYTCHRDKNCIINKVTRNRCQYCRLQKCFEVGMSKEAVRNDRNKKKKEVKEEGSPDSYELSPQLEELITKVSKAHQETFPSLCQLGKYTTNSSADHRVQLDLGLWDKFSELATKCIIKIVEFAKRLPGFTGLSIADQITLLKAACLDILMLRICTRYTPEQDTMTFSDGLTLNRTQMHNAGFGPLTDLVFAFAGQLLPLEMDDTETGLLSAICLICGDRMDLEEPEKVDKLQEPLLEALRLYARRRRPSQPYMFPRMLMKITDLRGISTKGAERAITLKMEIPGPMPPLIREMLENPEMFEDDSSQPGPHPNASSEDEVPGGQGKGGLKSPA

hairless mice = assay: Example 1: skin irritation by topical agonist, topical antagonist; type: in vivo
Procedure: More particularly skin irritation was measured on a semiquantitative scale by the daily subjective evaluation of skin flaking and abrasions. A single number, the topical irritation score, summarizes the skin irritation induced in an animal during the course of an experiment. The topical irritation score is calculated as follows. The topical irritation score is the algebraic sum of a composite flaking score and a composite abrasion score. The composite scores range from 0-9 and 0-8 for flaking and abrasions, respectively, and take into account the maximum severity, the time of onset, and the average severity of the flaking and abrasions observed.
The severity of flaking is scored on a 5-point scale and the severity of abrasions is scored on a 4-point scale, with higher scores reflecting greater severity. The maximum severity component of the composite scores would be the highest daily severity score assigned to a given animal during the course of observation.
For the time of onset component of the composite score, a score ranging from 0 to 4 is assigned as follows:
The average severity component of the composite score is the sum of the daily flaking or abrasion scores divided by the number of observation days.
To calculate the composite flaking and abrasion scores, the average severity and time of onset scores are summed and divided by 2. The result is added to the maximal severity score. The composite flaking and abrasion scores are then summed to give the overall topical irritation score. Each animal receives a topical irritation score, and the values are expressed as the mean±SD of the individual scores of a group of animals. Values are rounded to the nearest integer.
Female hairless mice [Crl:SKH1-hrBR] […] Treatments are applied to the dorsal skin in a total volume of 4 ml/kg (˜0.1 ml). Mice were observed daily and scored for flaking and abrasions up to and including 3 days after the last treatment, i.e., day 8.

With C=C1/C(=C\C=C2/CCC[C@]3(C)[C@@H]([C@H](C)CCCC(C)(C)O)CC[C@@H]23)C[C@@H](O)C[C@@H]1O [1,25-dihydroxyvitamin D3, reference compound] the “concentration required to produce a luciferase expression of approximately 2,000 rlu” value [1] was 10^−8 M and the “repression of TPA-stimulated activity” value [2] was “repressed TPA-stimulated activity only in the 10^−8 and 10^−7 M concentration range”.

For C/C(=C\c1ccc(C(=O)O)s1)c1cc2c(cc1C)C(C)(C)CCC2(C)C [AGN 191659, 5-[(E)-2-(5,6,7,8-tetrahydro-3,5,5,8,8-pentamethylnaphthalen-2-yl)propen-1-yl]-2-thiophencarboxylic acid, reference compound], the “Serum Triglycerides” value [3] was 122.5 ± 27.6 mg/dL.

In the case of CC1(C)CC=C(c2cccs2)c2cc(C#Cc3ccc(C(=O)O)cc3)ccc21 [Compound 34a, 4-[(5,6-dihydro-5,5-dimethyl-8-(2-thienyl)-2-naphthalenyl)ethynyl]benzoic acid], the “RAR-γ-VP-16 constitutive activity (negative hormone activity)” value (RAR-γ-VP-16) is reported as “did not repress RAR-γ-VP-16 activity” and the Kd (RARγ) is reported as 52 nM.

In the case of Cc1ccc(C2=CCSc3ccc(C#Cc4ccc(C(=O)O)cc4)cc32)cc1 [Compound 50, 4-[2-(6-(4-(4-methylphenyl)-(2H)-1-benzothiopyranyl))ethynyl]-benzoic acid], the “RAR-γ-VP-16 constitutive activity (negative hormone activity)” value (RAR-γ-VP-16) is reported as “dose dependent repression of RAR-γ-VP-16 constitutive activity” and the Kd (RARγ) is reported as 30 nM.

In the case of CC1(C)CC=C(c2ccccc2)c2cc(C#Cc3ccc(C(=O)O)cc3)ccc21 [Compound 60a, 4-[(5,6-dihydro-5,5-dimethyl-8-phenyl-2-naphthalenyl)ethynyl]benzoic acid], the “Topical Irritation Score” value (hairless mice; group C: AGN 192869 0.06 mg/kg/d + AGN 191183 0.025 mg/kg/d topical, molar ratio 2:1) is reported as 5 ± 2, the “Topical Irritation Score” value (hairless mice; group D: AGN 192869 0.30 mg/kg/d + AGN 191183 0.025 mg/kg/d topical, molar ratio 10:1) is reported as 2 ± 1 and the “Topical Irritation Score” value (hairless mice; group E: AGN 192869 1.5 mg/kg/d + AGN 191183 0.025 mg/kg/d topical, molar ratio 50:1) is reported as 1 ± 0. For the same compound, the “Topical Irritation Score” value (hairless mice; group F: AGN 192869 1.5 mg/kg/d topical alone) was 0 ± 0.
